Source: US20240124450A1, “Novel SIK Inhibitors” (Pfizer Inc., priority 2022, published 2024)
Read-outs that look alike come from different tables or passages of the source.

What was measured:
SIK1 = SIK1 (Homo sapiens (Human), UniProt P57059); assay: Pan SIK MS IC50 enzyme assay (SIK1); format: biochemical; conditions: 1 mM ATP, substrate peptide AQT0868, LCMS/MS detection
Description: (§1) Enzyme Assay: Pan SIK MS IC50 Assay
(§2) Salt Induced Kinase (SIK) activity is determined by measuring the effect of a test agent on the activity of the appropriate SIK enzyme to phosphorylate its corresponding substrate. […] The phosphorylated substrate product resulting from the kinase reaction is detected by LCMS/MS, and the area under the peak curve correlates with kinase activity. […] The plates are spun at 1000 rpm for 30 seconds to ensure compounds are at the bottom of the well before removing foil covers. 0.15 μL HPE (assay std) and ZPE (DMSO) are added to the ARP using an HP D300 dispenser. Plates are spun again at 1000 rpm for 30 seconds. […] Plates are spun at 1000 rpm for 30 seconds. Plates are then sealed and incubated at RT for 10 minutes. Following incubation, 5 μL of 5× peptide reagent is added with a Multidrop Combi and designated small volume cassette to initiate the kinase reaction. Plates are spun at 1000 rpm for 30 seconds. Plates are then sealed and incubated at RT for 90 minutes. The assay is stopped by the addition of 5 μl of 120 mM EDTA added with a Multidrop Combi and designated small volume cassette (20 mM final concentration). Plates are spun at 1000 rpm for 30 seconds. 10 μl of the final reaction mix from each of the three individual enzyme plates are transferred by a Platemate Plus to the same corresponding 96 well deepwell plate containing 70 μl Water/Methanol (85/15%) for multiplex MS detection ([…]). Using Activity Base (ABase), an idbs data analysis software tool, the reported area ratio unit data is associated to compound, batch and dose information, the data is evaluated for quality, and the percent inhibition of each well is calculated. The data from each Max effect/HPE and Min effect/ZPE control wells are assessed, and outliers are excluded from all further calculations. The mean and standard deviation of the HPE and ZPE are then calculated for each plate, along with the Z Prime. The compound data is converted into % effect, using the average ZPE and HPE controls as 0% and 100% activity, respectively.

SIK2 = SIK2 (Homo sapiens (Human), UniProt Q9H0K1); assay: Pan SIK MS IC50 enzyme assay (SIK2); format: biochemical; conditions: 1 mM ATP, substrate peptide AQT0252, LCMS/MS detection
Sequence of SIK2 (Q9H0K1 whole entry, species assumed): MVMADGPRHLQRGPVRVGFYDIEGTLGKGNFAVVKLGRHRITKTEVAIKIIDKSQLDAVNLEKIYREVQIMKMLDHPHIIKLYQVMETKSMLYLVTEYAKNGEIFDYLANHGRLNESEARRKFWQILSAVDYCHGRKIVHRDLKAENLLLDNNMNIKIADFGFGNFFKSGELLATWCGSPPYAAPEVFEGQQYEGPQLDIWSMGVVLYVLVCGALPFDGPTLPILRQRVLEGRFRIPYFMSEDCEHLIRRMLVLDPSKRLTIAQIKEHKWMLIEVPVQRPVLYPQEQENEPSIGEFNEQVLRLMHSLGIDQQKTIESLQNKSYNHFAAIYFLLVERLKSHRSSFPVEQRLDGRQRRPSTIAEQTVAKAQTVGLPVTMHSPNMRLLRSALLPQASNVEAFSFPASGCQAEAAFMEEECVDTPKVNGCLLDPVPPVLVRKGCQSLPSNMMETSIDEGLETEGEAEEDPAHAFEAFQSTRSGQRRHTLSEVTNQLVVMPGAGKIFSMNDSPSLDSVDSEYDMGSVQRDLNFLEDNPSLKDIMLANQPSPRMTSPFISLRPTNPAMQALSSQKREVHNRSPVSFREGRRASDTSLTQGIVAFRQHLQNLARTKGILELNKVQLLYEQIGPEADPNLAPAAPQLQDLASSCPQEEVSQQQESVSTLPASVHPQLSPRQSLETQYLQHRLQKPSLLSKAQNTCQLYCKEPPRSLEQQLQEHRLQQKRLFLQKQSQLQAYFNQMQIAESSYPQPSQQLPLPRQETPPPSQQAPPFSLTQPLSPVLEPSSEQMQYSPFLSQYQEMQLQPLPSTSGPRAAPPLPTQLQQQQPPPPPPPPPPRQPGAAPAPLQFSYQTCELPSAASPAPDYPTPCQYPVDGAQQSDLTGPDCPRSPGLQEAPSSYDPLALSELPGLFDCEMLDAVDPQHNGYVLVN
Description: as §1, §2

SIK3 = SIK3 (Homo sapiens (Human), UniProt Q9Y2K2); assay: Pan SIK MS IC50 enzyme assay (SIK3); format: biochemical; conditions: 1 mM ATP, substrate peptide AQT0508, LCMS/MS detection
Sequence of SIK3 (Q9Y2K2 whole entry, species assumed): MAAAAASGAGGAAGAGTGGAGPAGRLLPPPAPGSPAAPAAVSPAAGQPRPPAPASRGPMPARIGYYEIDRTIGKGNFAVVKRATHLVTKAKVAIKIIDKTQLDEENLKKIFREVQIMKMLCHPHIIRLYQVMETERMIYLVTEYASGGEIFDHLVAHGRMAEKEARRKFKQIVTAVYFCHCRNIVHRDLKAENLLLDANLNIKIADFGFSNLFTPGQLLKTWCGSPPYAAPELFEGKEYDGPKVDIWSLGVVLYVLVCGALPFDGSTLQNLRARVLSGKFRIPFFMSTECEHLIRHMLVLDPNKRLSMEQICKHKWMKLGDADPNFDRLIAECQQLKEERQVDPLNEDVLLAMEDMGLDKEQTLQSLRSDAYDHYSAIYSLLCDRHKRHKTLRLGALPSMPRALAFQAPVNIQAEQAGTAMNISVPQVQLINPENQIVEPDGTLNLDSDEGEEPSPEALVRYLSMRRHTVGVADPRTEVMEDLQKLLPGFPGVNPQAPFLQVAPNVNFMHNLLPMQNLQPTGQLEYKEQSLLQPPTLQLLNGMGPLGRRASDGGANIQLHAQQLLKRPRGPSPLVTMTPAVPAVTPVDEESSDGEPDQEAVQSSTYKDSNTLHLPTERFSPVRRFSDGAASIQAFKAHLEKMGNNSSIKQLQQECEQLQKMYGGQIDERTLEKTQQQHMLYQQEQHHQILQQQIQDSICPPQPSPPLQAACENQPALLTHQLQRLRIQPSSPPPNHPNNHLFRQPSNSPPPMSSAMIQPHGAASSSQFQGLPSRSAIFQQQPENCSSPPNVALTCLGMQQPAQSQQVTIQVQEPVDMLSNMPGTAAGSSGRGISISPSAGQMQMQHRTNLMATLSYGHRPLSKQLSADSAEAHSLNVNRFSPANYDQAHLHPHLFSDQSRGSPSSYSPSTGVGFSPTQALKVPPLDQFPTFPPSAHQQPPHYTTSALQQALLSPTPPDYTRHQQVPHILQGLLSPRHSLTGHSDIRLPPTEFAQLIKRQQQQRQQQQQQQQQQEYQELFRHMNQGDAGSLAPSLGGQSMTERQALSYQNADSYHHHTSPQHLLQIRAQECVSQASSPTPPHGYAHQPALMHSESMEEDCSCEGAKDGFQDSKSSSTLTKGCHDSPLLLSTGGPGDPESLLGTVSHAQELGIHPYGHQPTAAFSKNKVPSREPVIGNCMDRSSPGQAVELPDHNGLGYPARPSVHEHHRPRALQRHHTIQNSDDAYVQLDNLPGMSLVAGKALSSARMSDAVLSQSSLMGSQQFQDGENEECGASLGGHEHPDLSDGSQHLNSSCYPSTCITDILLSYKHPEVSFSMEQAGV
Description: as §1, §2

[1] = tested on: TNFα release from human monocyte derived macrophages stimulated with LPS; assay: SIK macrophage cytokine assay, inhibition of TNFα release; format: cell-based; conditions: 1 ng/mL LPS, 4 hours, HTRF, read-out: TNFa IC50
Description: (§3) Cytokine Assays: SIK Macrophage Assay Cytokine activity is determined by measuring the effect of a test agent on the inhibitory release of the cytokine TNFα and the increasing release of the cytokine IL10 from human monocyte derived macrophages (human macrophages) stimulated with lipopolysaccharide (LPS). At the time of assay, human macrophages (CGPS group Pfizer Groton, CT) are removed from cryopreservation, thawed quickly at 37° C., diluted in thaw medium (OptiMEM—Gibco medium, 10% heat inactivated fetal bovine serum (HIFBS)), and then centrifuged at 200×g for 10 minutes. […] After ˜60 minutes in an incubator at 37° C. in a humidified environment in 5% carbon dioxide the cells are stimulated by the addition of 5 μL of LPS (10 ng/mL; Sigma) and the assay plate is returned to an incubator at 37° C. in a humidified environment in 5% carbon dioxide for 4 hours. […] The final concentration of DMSO in the assay is approximately 0.1%. After 4 hours, the assay plate is removed from the incubator and centrifuged at 1500 rpm for 10 minutes. A portion of the resulting cell supernatant is then used to determine the amount of IL-10 and TNFα in each well. Cytokine measurements are made using human IL-10 and TNFα HTRF assay kits (Perkin Elmer) following the manufacturer's assay protocol.

[2] = tested on: IL10 release from human monocyte derived macrophages stimulated with LPS; assay: SIK macrophage cytokine assay, increase of IL10 release; format: cell-based; conditions: 1 ng/mL LPS, 4 hours, HTRF
Description: as §3

Sequence of SIK1 (P57059 whole entry, species assumed): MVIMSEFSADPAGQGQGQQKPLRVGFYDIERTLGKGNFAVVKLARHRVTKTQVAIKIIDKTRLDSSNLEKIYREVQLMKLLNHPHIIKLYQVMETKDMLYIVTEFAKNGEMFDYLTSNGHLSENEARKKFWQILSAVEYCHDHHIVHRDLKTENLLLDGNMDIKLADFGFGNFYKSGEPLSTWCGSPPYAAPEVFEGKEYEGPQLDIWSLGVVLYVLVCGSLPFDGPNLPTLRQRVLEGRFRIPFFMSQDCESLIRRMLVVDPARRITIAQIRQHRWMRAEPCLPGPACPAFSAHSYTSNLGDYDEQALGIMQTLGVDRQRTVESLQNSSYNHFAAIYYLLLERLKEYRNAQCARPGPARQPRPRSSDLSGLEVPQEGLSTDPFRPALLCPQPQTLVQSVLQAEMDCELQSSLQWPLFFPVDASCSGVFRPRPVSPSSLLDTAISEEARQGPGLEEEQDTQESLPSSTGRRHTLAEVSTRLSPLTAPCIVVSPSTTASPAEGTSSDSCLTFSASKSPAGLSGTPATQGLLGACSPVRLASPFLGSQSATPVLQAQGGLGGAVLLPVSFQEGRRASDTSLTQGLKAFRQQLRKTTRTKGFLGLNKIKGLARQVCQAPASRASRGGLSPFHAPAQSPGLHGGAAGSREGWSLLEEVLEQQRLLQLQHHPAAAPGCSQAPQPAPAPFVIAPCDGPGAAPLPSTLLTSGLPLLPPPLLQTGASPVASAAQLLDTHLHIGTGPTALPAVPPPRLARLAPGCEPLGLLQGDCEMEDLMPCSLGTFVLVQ

Row | Compound | IC50 (SIK1) [nM] | IC50 (SIK2) [nM] | IC50 (SIK3) [nM] | IC50 ([1]; Macrophage) [nM] | EC50 ([2]; Macrophage) [nM] | IC50 [1] [nM] | EC50 [2] [nM]
1 | COc1cccc2ncc(-c3cc(OCC4(N)CCCC4)c(C#N)c(SC)c3)n12 [Example 1, 2-((1-Aminocyclopentyl)methoxy)-4-(5-methoxyimidazo[1,2-a]pyridin-3-yl)-6-(methylthio)benzonitrile] | 2.5 | 2.2 | 7.5 | 26.4 | 109 | – | –
2 | COc1ccc2ncc(-c3cc(OCC4(N)CCCC4)c(C#N)c(SC)c3)n2c1C#N [Example 39, 3-(3-((1-Aminocyclopentyl)methoxy)-4-cyano-5-(methylthio)phenyl)-6-methoxyimidazo[1,2-a]pyridine-5-carbonitrile] | 0.5 | 1 | 1.1 | 6 | 25 | – | –
3 | CNc1ccc2ncc(-c3cc(OCC4(N)CCCC4)c(C#N)c(SC)c3)n2c1C#N [Example 53, 3-(3-((1-Aminocyclopentyl)methoxy)-4-cyano-5-(methylthio)phenyl)-6-(methylamino)imidazo[1,2-a]pyridine-5-carbonitrile] | 0.1 | 0.4 | 1.5 | 0.5 | 4 | – | –
4 | CSc1cc(-c2cnc3ccccn23)cc(OC[C@@]2(N)CCC[C@H](C(F)(F)F)C2)c1C#N.CSc1cc(-c2cnc3ccccn23)cc(OC[C@]2(N)CCC[C@@H](C(F)(F)F)C2)c1C#N (mixture of isomers) [Example 33B, 2-(((1R,3S)-1-Amino-3-(trifluoromethyl)cyclohexyl)methoxy)-4-(imidazo[1,2-a]pyridin-3-yl)-6-(methylthio)benzonitrile and 2-(((1S,3R)-1-amino-3-(trifluoromethyl)cyclohexyl)methoxy)-4-(imidazo[1,2-a]pyridin-3-yl)-6-(methylthio)benzonitrile] | 10.9 | 9.9 | 23.4 | – | – | 258 | 338
5 | CSc1cc(-c2cnc3ccccn23)cc(OC[C@@]2(N)CCC[C@@H](C(F)(F)F)C2)c1C#N (racemic) [Example 33A, 2-(((1S,3S)-1-Amino-3-(trifluoromethyl)cyclohexyl)methoxy)-4-(imidazo[1,2-a]pyridin-3-yl)-6-(methylthio)benzonitrile and 2-(((1R,3R)-1-amino-3-(trifluoromethyl)cyclohexyl)methoxy)-4-(imidazo[1,2-a]pyridin-3-yl)-6-(methylthio)benzonitrile] | 0.6 | 1 | 2.2 | 13.9 | 34 | – | –
6 | COc1cc(C#N)n2c(-c3cc(OC)c(C#N)c(OCC4(N)CCCCC4)c3)cnc2c1 [Example 52, 3-(3-((1-Aminocyclohexyl)methoxy)-4-cyano-5-methoxyphenyl)-7-methoxyimidazo[1,2-a]pyridine-5-carbonitrile] | 5.1 | 1.1 | 2.1 | 12 | 178 | – | –
7 | COc1cc(C#N)n2c(-c3cc(OCC4(N)CCCCC4)c(C#N)c(SC)c3)cnc2c1 [Example 51, 3-(3-((1-Aminocyclohexyl)methoxy)-4-cyano-5-(methylthio)phenyl)-7-methoxyimidazo[1,2-a]pyridine-5-carbonitrile] | 1.5 | 0.5 | 1.6 | 5.7 | 26 | – | –
8 | COc1cc(C#N)n2c(-c3cc(OCC4(N)CCCC4)c(C#N)c(SC)c3)cnc2c1 [Example 50, 3-(3-((1-Aminocyclopentyl)methoxy)-4-cyano-5-(methylthio)phenyl)-7-methoxyimidazo[1,2-a]pyridine-5-carbonitrile] | 1.2 | 0.5 | 0.8 | 4.2 | 29 | – | –
9 | CCOC(=O)c1cc(C#N)n2c(-c3cc(OCC4(N)CCCC4)c(C#N)c(SC)c3)cnc2c1 [Example 38, Ethyl 3-(3-((1-aminocyclopentyl)methoxy)-4-cyano-5-(methylthio)phenyl)-5-cyanoimidazo[1,2-a]pyridine-7-carboxylate] | 1.5 | 1 | 1.8 | 20.1 | 51 | – | –
10 | CC[C@@H]1CCC[C@](N)(COc2cc(-c3cnc4cccc(OC)n34)cc(OC)c2C#N)C1 [Example 16, 2-(((1R,3R)-1-Amino-3-ethylcyclohexyl)methoxy)-6-methoxy-4-(5-methoxyimidazo[1,2-a]pyridin-3-yl)benzonitrile and 2-(((16,36)-1-Amino-3-ethylcyclohexyl)methoxy)-6-methoxy-4-(5-methoxyimidazo[1,2-a]pyridin-3-yl)benzonitrile] | – | – | – | 4.8 | 14 | – | –
11 | CSc1cc(-c2cnc3cc(C)cc(C#N)n23)cc(OCC2(N)CCCC2)c1C#N [Example 41, 3-(3-((1-Aminocyclopentyl)methoxy)-4-cyano-5-(methylthio)phenyl)-7-methylimidazo[1,2-a]pyridine-5-carbonitrile] | 1.9 | 0.8 | 0.7 | 5.3 | 54 | – | –
12 | CCC1CCC(N)(COc2cc(-c3cnc4cccc(OC)n34)cc(OC)c2C#N)C1 (centres unmarked) [Example 3, 2-((1-Amino-3-ethylcyclopentyl)methoxy)-6-methoxy-4-(5-methoxyimidazo[1,2-a]pyridin-3-yl)benzonitrile] | 0.8 | 2.1 | 4.7 | 29.7 | 92 | – | –
13 | CSc1cc(-c2cnc3ccccn23)cc(OC[C@@]2(N)CCC(F)(F)C2)c1C#N (mixture of isomers) [Example 25, (R)-2-((1-Amino-3,3-difluorocyclopentyl)methoxy)-4-(imidazo[1,2-a]pyridin-3-yl)-6-(methylthio)benzonitrile and (S)-2-((1-amino-3,3-difluorocyclopentyl)methoxy)-4-(imidazo[1,2-a]pyridin-3-yl)-6-(methylthio)benzonitrile] | 2.3 | 0.9 | 5.3 | 15.6 | 177 | – | –
14 | COc1cc(-c2cnc3cccc(OC)n23)cc(OCC2(N)CCCN(CC(F)(F)F)C2)c1C#N (centres unmarked) [Example 21A] | 1 | 1.1 | 4.4 | – | – | 19.6 | 50
15 | CC[C@@H]1CCC[C@@]1(N)COc1cc(-c2cnc3cccc(OC)n23)cc(SC)c1C#N (mixture of isomers) [Example 9, 2-(((1S,2R)-1-Amino-2-ethylcyclopentyl)methoxy)-4-(5-methoxyimidazo[1,2-a]pyridin-3-yl)-6-(methylthio)benzonitrile and 2-(((1R,2S)-1-amino-2-ethylcyclopentyl)methoxy)-4-(5-methoxyimidazo[1,2-a]pyridin-3-yl)-6-(methylthio)benzonitrile] | – | – | – | 5.3 | 12 | – | –
16 | CSc1cc(-c2cnc3cccc(C#N)n23)cc(OC[C@@]2(N)CCC(F)(F)C2)c1C#N (mixture of isomers) [Example 12, (R)-3-(3-((1-Amino-3,3-difluorocyclopentyl)methoxy)-4-cyano-5-(methylthio)phenyl)imidazo[1,2-a]pyridine-5-carbonitrile and (S)-3-(3-((1-amino-3,3-difluorocyclopentyl)methoxy)-4-cyano-5-(methylthio)phenyl)imidazo[1,2-a]pyridine-5-carbonitrile] | – | – | – | 20.1 | 67 | – | –
